Peptide text beside a SMILES is read from it.
Target: T1, BK2 receptor (Rattus norvegicus, UniProt P25023)
T1 sequence (P25023 1-396): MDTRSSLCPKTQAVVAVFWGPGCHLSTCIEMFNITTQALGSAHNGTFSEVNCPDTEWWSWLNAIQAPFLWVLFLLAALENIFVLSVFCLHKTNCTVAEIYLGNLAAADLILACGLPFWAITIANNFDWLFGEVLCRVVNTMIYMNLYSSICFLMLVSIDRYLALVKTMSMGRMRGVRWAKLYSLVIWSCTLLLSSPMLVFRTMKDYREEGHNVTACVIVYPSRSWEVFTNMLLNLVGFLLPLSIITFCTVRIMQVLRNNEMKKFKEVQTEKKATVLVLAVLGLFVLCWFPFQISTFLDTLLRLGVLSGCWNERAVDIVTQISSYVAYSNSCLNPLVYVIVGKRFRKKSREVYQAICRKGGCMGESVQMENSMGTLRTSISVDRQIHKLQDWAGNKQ
Experiment: cell-based

Compound	Kb [nM]
CC(C)C[C@H](NC(=O)[C@@H](Cc1ccccc1)NC(=O)[C@H](CSC1CC(=O)N(CCCCCCCCCN2C(=O)CC(SC[C@H](NC(=O)[C@H](Cc3ccccc3)NC(=O)CNC(=O)[C@@H]3C[C@@H](O)CN3C(=O)[C@@H]3CCCN3C(=O)[C@H](CCCNC(=N)N)NC(=O)[C@H](N)CCCNC(=N)N)C(=O)N[C@H](Cc3ccccc3)C(=O)N[C@@H](CC(C)C)C(=O)N[C@@H](CCCNC(=N)N)C(=O)O)C2=O)C1=O)NC(=O)[C@H](Cc1ccccc1)NC(=O)CNC(=O)[C@@H]1C[C@@H](O)CN1C(=O)[C@@H]1CCCN1C(=O)[C@H](CCCNC(=N)N)NC(=O)[C@H](N)CCCNC(=N)N)C(=O)N[C@@H](CCCNC(=N)N)C(=O)O (some centres unmarked) [CP-0229] (HELM PEPTIDE1{[dR].R.P.[Hyp].G.F.C.[dF].L.R}|PEPTIDE2{[dR].R.P.[Hyp].G.F.C.[dF].L.R}|CHEM1{[O=C1CC([*:1])C(=O)N1CCCCCCCCCN1C(=O)CC([*:2])C1=O]}$PEPTIDE1,CHEM1,7:R3-1:R1|PEPTIDE2,CHEM1,7:R3-1:R2$$$V2.0)	0.501
CC(C)C[C@H](NC(=O)[C@@H](Cc1ccccc1)NC(=O)[C@H](CSC1CC(=O)N(CCCCCCCCCCN2C(=O)CC(SC[C@H](NC(=O)[C@H](Cc3ccccc3)NC(=O)CNC(=O)[C@@H]3C[C@@H](O)CN3C(=O)[C@@H]3CCCN3C(=O)[C@H](CCCNC(=N)N)NC(=O)[C@H](N)CCCNC(=N)N)C(=O)N[C@H](Cc3ccccc3)C(=O)N[C@@H](CC(C)C)C(=O)N[C@@H](CCCNC(=N)N)C(=O)O)C2=O)C1=O)NC(=O)[C@H](Cc1ccccc1)NC(=O)CNC(=O)[C@@H]1C[C@@H](O)CN1C(=O)[C@@H]1CCCN1C(=O)[C@H](CCCNC(=N)N)NC(=O)[C@H](N)CCCNC(=N)N)C(=O)N[C@@H](CCCNC(=N)N)C(=O)O (some centres unmarked) [CP-0230] (HELM PEPTIDE1{[dR].R.P.[Hyp].G.F.C.[dF].L.R}|PEPTIDE2{[dR].R.P.[Hyp].G.F.C.[dF].L.R}|CHEM1{[O=C1CC([*:1])C(=O)N1CCCCCCCCCCN1C(=O)CC([*:2])C1=O]}$PEPTIDE1,CHEM1,7:R3-1:R1|PEPTIDE2,CHEM1,7:R3-1:R2$$$V2.0)	2.51

From US5620958A, “Bradykinin antagonists” (Coretech, Inc., priority 1994, dated 1997)
